According to patent US20240016783A1 (Icahn School of Medicine at Mount Sinai, priority 2020, published 2024):

Assays:
[1] = system: mouse model of AD (SXFAD); details: early-onset aggressive mouse model of AD (SXFAD); cited from earlier work
rodents = details: through clustering of dendritic spines; cited from earlier work
[2] = system: Alzheimer's disease patients; details: in vivo
rodent models = details: cited from earlier work

Which “Gene expression changes in immune pathways” value [1] does the source give for `Nc1nc2ccc(OC(F)(F)F)cc2s1` [Riluzole, 2-Amino-6-(trifluoromethoxy)benzothiazole] here?
Its value is “reversed many of the gene expression changes in immune pathways”.

And the “Hippocampal-dependent spatial memory decline” value [1]?
The value was “prevented hippocampal-dependent spatial memory decline”.

What about the Age-related cognitive decline (rodents) of the same compound?
Its Age-related cognitive decline is “can prevent age-related cognitive decline”.

What about the Abdominal discomfort ([2]; human, 6 months) of the same compound?
The Abdominal discomfort was 15.4%.

And the “Adverse event that led to removal from the trial” value ([2]; human, 6 months)?
Its value is 15.4%.

What about the Cough ([2]; human, 6 months) of the same compound?
The Cough was 19.23%.

What about the Diarrhea ([2]; human, 6 months) of the same compound?
Its Diarrhea is 15.4%.

What about the Dizziness ([2]; human, 6 months) of the same compound?
Its Dizziness is 15.4%.

What about the Elevated liver enzymes ([2]; human, 6 months) of the same compound?
Its Elevated liver enzymes is 7.7%.

And the Nausea ([2]; human, 6 months)?
Its Nausea is 7.7%.

And the “Patients having at least one adverse event during the study” value ([2]; human, 6 months)?
The value was 88.5%.

And the Serious adverse events ([2]; human, 6 months)?
Its Serious adverse events is 7.7%.

And the Urinary frequency ([2]; human, 6 months)?
The Urinary frequency was 11.5%.

What about the “Difference in adverse events between treatment groups” value [2] of the same compound?
The value was “no statistical differences”.

What about the “Gene expression profiles related to aging and AD” value (rodent models) of the same compound?
The value was “rescues gene expression profiles related to aging and AD”.
